From the OligoGym collection come the findings set out here.

After the bases stand the sugars from the 5' end (letter, count) and the backbone: PS all phosphorothioate, else s phosphorothioate and o phosphodiester by linkage. Methylation of C is not given here. e = 2'-O-(2-methoxyethyl) (MOE); k = constrained ethyl (cEt); d = 2'-deoxy (DNA); m = 2'-O-methyl

The target of the data set is HSD17B13. The following applies: ASO, HepaRG.

GTAGATGGTAAGTCAA (sugars k3 d10 k3, PS) displayed a target mRNA inhibition (0.02 µM) of 20%; a target mRNA inhibition (0.078 µM) of 35%; a target mRNA inhibition (0.313 µM) of 55%; a target mRNA inhibition (1 µM) of 86%; a target mRNA inhibition (1.25 µM) of 84%; a target mRNA inhibition (5 µM) of 88%. TACCAATATGGGATGA (sugars k3 d10 k3, PS) had a target mRNA inhibition (1 µM) of 1%. Same read-out and setting: under TCTAAGTTAGCCCCCA (sugars k3 d10 k3, PS) stands 36%.

In the case of TTTCATAGGGAGACCA (sugars k3 d10 k3, PS), the target mRNA inhibition (1 µM) is 71%.

Under “1 µM”, “TAGTAATCACAAGTAA (sugars kkdddddddddkekek, PS)” had a target mRNA inhibition of 55%. Take AGAAATTCACCTTGAC (sugars k3 d10 k3, PS): where the note is “1 µM”, the target mRNA inhibition amounted to 39%. As for TTTAATACGACTTCCT (sugars k3 d10 k3, PS), the target mRNA inhibition was found to be 0% (0.02 µM); 0% (0.078 µM); 27% (0.313 µM); 72% (1 µM); 68% (1.25 µM); 83% (5 µM). ATTAATCATGGGACAG (sugars k3 d10 k3, PS): the target mRNA inhibition (1 µM) is 20%. TAGGCTAAAATGGTCA (sugars k3 d10 k3, PS): under “1 µM”, the target mRNA inhibition is 59%. In turn, CTCCACACCGCGCTTA (sugars k3 d10 k3, PS) gave a target mRNA inhibition (1 µM) of 7%.

Regarding CATACGCATGCGCAGT (sugars k3 d10 k3, PS), where the note is “1 µM”, the target mRNA inhibition came to 60%. The sequence GACCAGGGAATTTATC (sugars k3 d10 k3, PS) yielded a target mRNA inhibition (1 µM) of 41%. Same read-out and setting: under GTAATTGCATCTGCTC (sugars k3 d10 k3, PS) stands 51%; under “AGGCTGTAAGAGTCAG (sugars kkdddddddddkekek, PS)”, 38%; under “ATGAGGTTTTGATACC (sugars k3 d1 m1 d8 k3, PS)”, 49%. On to GACAACAGAGTTCTGT (sugars k3 d10 k3, PS), for which the target mRNA inhibition (1 µM) was 9%.

The sequence GTTCTTAATTACATTC (sugars k3 d10 k3, PS) yielded a target mRNA inhibition (1 µM) of 64%.

With GGTTGAGATAAAGCTG (sugars k3 d10 k3, PS), the target mRNA inhibition is, setting by setting: (0.02 µM) 0%; (0.078 µM) 0%; (0.313 µM) 37%; (1 µM) 76%; (1.25 µM) 65%; (5 µM) 86%.

On to TAGTATAGTTATCTTC (sugars k3 d10 k3, PS), for which the target mRNA inhibition (1 µM) is 28%. For CTTTCATAGGGAGACC (sugars k3 d10 k3, PS), the target mRNA inhibition came to 20% (0.02 µM); 2% (0.078 µM); 54% (0.313 µM); 73% (1 µM); 75% (1.25 µM); 86% (5 µM). “CCTCTAAGTTAGCCCC (sugars kkdddddddddkekek, PS)”: the target mRNA inhibition (1 µM) stood at 20%.

Take CGTCAAAAACCGTCAA (sugars k3 d10 k3, PS): the target mRNA inhibition (1 µM) came to 20%.

CTCTTGGGTCCATTGT (sugars k3 d10 k3, PS) displayed a target mRNA inhibition (1 µM) of 40%. For the sequence AAGAGCCAAACTGCTA (sugars k3 d10 k3, PS), the target mRNA inhibition by setting is: (0.02 µM) 0%; (0.078 µM) 0%; (0.313 µM) 11%; (1 µM) 63%; (1.25 µM) 46%; (5 µM) 66%. In turn, “AGTTAGTATAGTTATC (sugars kkdddddddddkekek, PS)” yielded a target mRNA inhibition (1 µM) of 47%. The sequence “ATGGCTACAGATTGGA (sugars kkdddddddddkekek, PS)” gave a target mRNA inhibition (1 µM) of 57%.

With TTGCAATAGTACTATA (sugars k3 d10 k3, PS), the target mRNA inhibition (1 µM) was 3%.

In the case of TTGTCTAAACATCTCT (sugars k3 d10 k3, PS), the target mRNA inhibition (1 µM) is 60%.

As for TGGTAAACTGTATGCC (sugars k3 d10 k3, PS), the target mRNA inhibition reads like this: (0.02 µM) 0%; (0.078 µM) 3%; (0.313 µM) 40%; (1 µM) 76%; (1.25 µM) 72%; (5 µM) 85%.

As to GACCAAGGATATATGA (sugars k3 d10 k3, PS), where the note is “1 µM”, the target mRNA inhibition was 48%. ATTAGTCTTGATGTAG (sugars k3 d10 k3, PS) came in with a target mRNA inhibition (1 µM) of 67%. For TGTTATCTCAAGTCAG (sugars k3 d10 k3, PS), the target mRNA inhibition runs as follows: (0.02 µM) 0%; (0.078 µM) 0%; (0.313 µM) 31%; (1 µM) 81%; (1.25 µM) 54%; (5 µM) 81%. With GCTGGAACAATATGGG (sugars k3 d10 k3, PS), the target mRNA inhibition (1 µM) turned out to be 36%. On the same count and under the same terms, the same measure for GTTTATGTAAGCACAG (sugars k3 d10 k3, PS): 67%; for TACTTTTAGGGAGGTA (sugars k3 d10 k3, PS): 28%; for AAATATGTCCAGGTTG (sugars k3 d10 k3, PS): 68%. As for TACATCACCCACTTCT (sugars k3 d10 k3, PS), the target mRNA inhibition (1 µM) worked out at 37%. On to CTAAACTAGTGGTAAT (sugars k3 d10 k3, PS), for which the target mRNA inhibition (1 µM) worked out at 23%. On to CGTTAGGTTTCCAAAT (sugars k3 d10 k3, PS), for which the target mRNA inhibition (1 µM) is 0%. Where the note is “1 µM”, ATCTATCAGACTTCTT (sugars k3 d10 k3, PS) registered a target mRNA inhibition of 47%.

In the case of AGTCCATGCAAAAGCA (sugars k3 d10 k3, PS), the target mRNA inhibition reads like this: (0.02 µM) 1%; (0.078 µM) 14%; (0.313 µM) 38%; (1 µM) 77%; (1.25 µM) 55%; (5 µM) 78%. GTCCACCTTTAAATGG (sugars k3 d10 k3, PS) yielded a target mRNA inhibition (1 µM) of 33%.

Sequence “GTGGCATGGCTACAGA (sugars kkdddddddddkekek, PS)” had a target mRNA inhibition (1 µM) of 59%. Same read-out and setting: under GTAATGGTAAACTGTA (sugars k3 d10 k3, PS) stands 70%. For the sequence AGTATGTGAACTCCGT (sugars k3 d10 k3, PS), the target mRNA inhibition (0.02 µM) worked out at 0%; the target mRNA inhibition (0.078 µM) came out at 5%; the target mRNA inhibition (0.313 µM) came out at 30%; the target mRNA inhibition (1 µM) came to 81%; the target mRNA inhibition (1.25 µM) is 67%; the target mRNA inhibition (5 µM) is 86%. For GCACTCAGCTGCAGTT (sugars k3 d10 k3, PS), where the note is “1 µM”, the target mRNA inhibition came out at 29%. As to CTCGGGAAGTTTAGAC (sugars k3 d10 k3, PS), the target mRNA inhibition (1 µM) worked out at 47%. With “GACTGCTGCTAGTGCC (sugars k3 d1 m1 d8 k3, PS)”, the target mRNA inhibition (1 µM) was determined as 60%.

As to GTGGGAGTCGGATTAT (sugars k3 d10 k3, PS), the target mRNA inhibition (1 µM) is 37%. Under “1 µM”, TCTGTATAGCTGCATT (sugars k3 d10 k3, PS) registered a target mRNA inhibition of 47%.

For “GCTCCATAATAATAGC (sugars k3 d1 m1 d8 k3, PS)”, the target mRNA inhibition (1 µM) is 16%. As for GGCTGTAAGAGTCAGT (sugars k3 d10 k3, PS), the target mRNA inhibition came to 0% (0.02 µM); 0% (0.078 µM); 0% (0.313 µM); 88% (1 µM); 51% (1.25 µM); 42% (5 µM). As to GTTTATCATGTGCCAC (sugars k3 d10 k3, PS), the target mRNA inhibition is, setting by setting: (0.02 µM) 0%; (0.078 µM) 21%; (0.313 µM) 44%; (1 µM) 83%; (1.25 µM) 76%; (5 µM) 94%. Consider AACCTTGAATGAGTGG (sugars k3 d10 k3, PS), for which the target mRNA inhibition (1 µM) was 50%. Where the note is “1 µM”, GTCCATGCAAAAGCAT (sugars k3 d10 k3, PS) displayed a target mRNA inhibition of 62%.

Take GCTCTATTGGGCCAGG (sugars k3 d10 k3, PS): the target mRNA inhibition (1 µM) is 47%. TGCAATAGTACTATAG (sugars k3 d10 k3, PS) came in with a target mRNA inhibition (1 µM) of 24%. Still for that read-out and setting: the same measure for GCCAATTCACATATGT (sugars k3 d10 k3, PS): 34%.

For the setting “1 µM”, CTCAATAACTGAGTTA (sugars k3 d10 k3, PS) registered a target mRNA inhibition of 4%.

In turn, GACATGAAGATTAGTT (sugars k3 d10 k3, PS) yielded a target mRNA inhibition (1 µM) of 3%.

Sequence ACAGGATAGAGCACAT (sugars k3 d10 k3, PS) showed a target mRNA inhibition (1 µM) of 44%. Sequence “AAAGACTTTGAGACTC (sugars kkdddddddddkekek, PS)” had a target mRNA inhibition (1 µM) of 45%. For the sequence TAATACGACTTCCTTC (sugars k3 d10 k3, PS), the target mRNA inhibition (1 µM) worked out at 32%.

As for ACTGGATGGATTTCTC (sugars k3 d10 k3, PS), the target mRNA inhibition runs as follows: (0.02 µM) 9%; (0.078 µM) 20%; (0.313 µM) 45%; (1 µM) 83%; (1.25 µM) 60%; (5 µM) 88%. As to “GCCTTGAATAGCAAGC (sugars k3 d9 k3 e1, PS)”, the target mRNA inhibition (1 µM) turned out to be 38%.

Sequence CAATTCACATATGTGA (sugars k3 d10 k3, PS) returned a target mRNA inhibition (1 µM) of 11%. In turn, “TTTCUTATGTAATAGC (sugars k3 d1 m1 d8 k3, PS)” came in with a target mRNA inhibition (1 µM) of 50%. Sequence GTTGGAAGATGTATAC (sugars k3 d10 k3, PS) came in with a target mRNA inhibition (1 µM) of 53%. In the case of AAAGATCTGGCCAGTT (sugars k3 d10 k3, PS), where the note is “1 µM”, the target mRNA inhibition worked out at 3%.
